Experimental data reported in ChEMBL document CHEMBL5244240, “MmpL3 inhibitors as antituberculosis drugs” (Eur J Med Chem, 2020).
In brackets after ≈: the same amount, converted by molar mass.

Key:
[1] = system: Mycobacterium tuberculosis; test: Antitubercular activity against low oxygen adapted Mycobacterium tuberculosis H37Rv; format: functional
[2] = system: Mycobacterium tuberculosis; test: Antitubercular activity against multidrug resistant Mycobacterium tuberculosis; format: functional

| Compound | MIC [1] [µM] | MIC [2] [µM] |
| --- | --- | --- |
| Cc1c(CN2CCOCC2)cc(-c2ccc(C(C)C)cc2)n1-c1ccc(F)cc1 | 28.7 (≈ 11.3 µg/mL) |  |
| COc1ccc(-c2cc(CN3CCSCC3)c(C)n2-c2ccc(F)cc2)cc1 | 10.1 (≈ 4 µg/mL) |  |
| CC1(C)CCC(NC(=O)c2cc3c(F)cc(F)cc3[nH]2)CC1 |  | < 0.04 |
| CC1(C)CCC(NC(=O)c2cc3c(Cl)cc(Cl)cc3[nH]2)CC1 |  | < 0.04 |
